Values after ≈ are worked out from the molar mass of the structure shown. A value given as a limit tells only on which side of the number the result lay.

The conditions of this data set: buffer; pH 7.4; 200.0 µM.
The solubility (kinetic) is solubility judged after dilution from a stock solution rather than from solid. For `COc1cccc(C(=O)NC2CCNCC2)c1`, the solubility (kinetic) was 31.4 µg/mL (≈ 134 µM).

Take `CN(C)CCCNC(=O)c1cc(C(=O)c2ccccc2)c[nH]1`: the solubility (kinetic) was over 44.9 µg/mL.

`O=C(OCC(=O)N1CCc2ccccc2C1)c1c(F)cccc1Cl` registered a solubility (kinetic) of 31.8 µg/mL (≈ 91.4 µM).

In turn, `CN(c1ccccc1)S(=O)(=O)c1ccc(Cl)nc1` yielded a kinetic solubility of 40.1 µg/mL (≈ 142 µM).

`Cc1ccc(N(CC(=O)NC2CCCC2)C(=O)c2ccc(C)s2)cc1` gave a solubility (kinetic) of 49.2 µg/mL (≈ 138 µM).

For `COc1ccc(C(=O)O/N=C(\N)c2cccc(C)c2)cc1OC`, the kinetic solubility was 14.7 µg/mL (≈ 46.8 µM).

Compound `COc1ccc(NC(=O)CC(NC(C)c2ccccc2)C(=O)O)cc1` (stereo not drawn) registered a kinetic solubility of 44.2 µg/mL (≈ 129 µM).

The compound `CCOc1ccc(-c2cnc3ccccc3n2)cc1` came in with a kinetic solubility of 0.8 µg/mL (≈ 3.2 µM).

`COc1cc(S(=O)(=O)Nc2ccc3c(c2)C(=O)N(C)C3=O)ccc1NC(C)=O` had a kinetic solubility of over 60.5 µg/mL.

Consider `Cc1cccc(OCC(=O)NC2CC(C)(C)NC(C)(C)C2)c1`, for which the kinetic solubility is over 45.7 µg/mL.

Compound `O=C(NC1CCCCCC1)C(=O)NC1CC1` displayed a kinetic solubility of 19.8 µg/mL (≈ 88.3 µM).

`Cc1cc(NC(=O)c2ccc([N+](=O)[O-])cc2Cl)no1`: the kinetic solubility is 16.3 µg/mL (≈ 57.9 µM).

In turn, `CC1CCCCC1NC(=O)CNC(=O)c1cccs1` (stereo not drawn) yielded a kinetic solubility of over 42.1 µg/mL.

In turn, `Cc1nn(C)cc1C(=O)Nc1ccc2c(c1)OCCO2` displayed a solubility (kinetic) of over 41 µg/mL.

`Cc1ccc(CNC(=O)C2COc3ccccc3O2)cc1` (stereo not drawn) showed a kinetic solubility of 20.1 µg/mL (≈ 70.9 µM).

In turn, `Cc1noc(C)c1COc1ccc(C(=O)N2CCCC(C(N)=O)C2)cc1` (stereo not drawn) had a kinetic solubility of over 53.6 µg/mL.

For the compound `O=C(Nc1nnc(-c2ccccc2)o1)c1cccc(S(=O)(=O)N2CCOCC2)c1`, the solubility (kinetic) was over 62.2 µg/mL.

`O=C(NC(=S)NCc1cccnc1)c1cc(Br)ccc1Cl` showed a kinetic solubility of 0.9 µg/mL (≈ 2.34 µM).

`CC1(C)CC(NC(=S)NCc2ccco2)CC(C)(C)N1`: the kinetic solubility is over 44.3 µg/mL.

Consider `CC(=O)c1ccc(NC(=O)c2cc(-c3cccs3)on2)cc1`, for which the kinetic solubility is under 0.3 µg/mL.

The compound `CC(=O)N1CCN(S(=O)(=O)c2ccc3c(c2)CCC(=O)N3)CC1` showed a solubility (kinetic) of over 50.6 µg/mL.

`O=[N+]([O-])c1ccc2nc(C3CCCCC3)[nH]c2c1`: the kinetic solubility was found to be 31.5 µg/mL (≈ 128 µM).

In turn, `O=C(Oc1cccc(Cl)c1)N1CCOCC1` gave a solubility (kinetic) of 34.8 µg/mL (≈ 144 µM).

As for `COC(=O)c1ccccc1NC(=O)Nc1cc(C(C)(C)C)on1`, the kinetic solubility amounted to 16.1 µg/mL (≈ 50.7 µM).

With `O=C(CN1CCC(NC(=O)C2CCCCC2)CC1)Nc1cccc(F)c1`, the kinetic solubility is 18.4 µg/mL (≈ 50.9 µM).

`Cc1ccc(C)c(C(=O)CN2C(=O)c3ccccc3C2=O)c1` had a solubility (kinetic) of 0.9 µg/mL (≈ 3.07 µM).

`COc1ccc(Nc2ncnc3sc(C)cc23)c(OC)c1.Cl` registered a solubility (kinetic) of over 50.7 µg/mL.

`COc1ccc2c(c1OC)C(=O)N(c1ccc(F)cc1)C2` returned a kinetic solubility of 3.8 µg/mL (≈ 13.2 µM).

In the case of `Cc1cc(C)c(C)c(OCCn2ccnc2)c1`, the kinetic solubility was determined as 31.4 µg/mL (≈ 136 µM).

Compound `CC(=O)c1cccc(NC(=O)CNC(=O)Cc2cccc3ccccc23)c1` registered a solubility (kinetic) of 8.4 µg/mL (≈ 23.3 µM).

Turning to `CCOc1ccccc1OCC(=O)Nc1cc(C)on1`, the kinetic solubility is over 41.4 µg/mL.

In turn, `CCC1C(=NO)C(CC)C(c2ccccc2)NC1c1ccccc1` (stereo not drawn) showed a kinetic solubility of 0.9 µg/mL (≈ 2.79 µM).

`CC(C)CN1CCN(Cc2cccc3c2OCO3)CC1CCO` (stereo not drawn) displayed a solubility (kinetic) of over 48.1 µg/mL.

In turn, `CCC1CN(C(=O)NCc2ccc(F)cc2)c2cc(C)ccc2O1` (stereo not drawn) displayed a solubility (kinetic) of 4.3 µg/mL (≈ 13.1 µM).

`Cc1cc(=O)oc(C)c1C(=O)NCCN(C)Cc1ccccc1` gave a kinetic solubility of over 47.2 µg/mL.

Compound `CC1(C)CC2CC(C)(CN2C(=S)Nc2ccccc2F)C1` (stereo not drawn) gave a solubility (kinetic) of 44 µg/mL (≈ 144 µM).

The compound `Nc1ccc(C(=O)C(=O)c2ccccc2)cc1` showed a solubility (kinetic) of over 33.8 µg/mL.

The compound `O=C(COC(=O)c1cc(Cl)ccc1O)NCC1CCCO1` (stereo not drawn) gave a solubility (kinetic) of over 47.1 µg/mL.

As to `Cc1ccc(C(=O)O)cc1N1CCCC1=O`, the solubility (kinetic) is over 32.9 µg/mL.

As for `COc1ccccc1NC(=O)C1CCCN(C(=O)NCc2ccccc2)C1` (stereo not drawn), the kinetic solubility was over 55.1 µg/mL.

Regarding `CC(=O)c1c(C)nc2ccc([N+](=O)[O-])cc2c1-c1ccccc1`, the kinetic solubility amounted to 21.9 µg/mL (≈ 71.5 µM).

Compound `Cc1nc2cc(NC(=O)Nc3ccccc3Cl)ccc2n1C` registered a kinetic solubility of 7.4 µg/mL (≈ 23.5 µM).

Take `Cc1ccnc(NC(=O)c2cc(F)c(F)cc2Cl)n1`: the solubility (kinetic) was over 42.6 µg/mL.

`Clc1cc(Cl)cc(NC2=NCCS2)c1`: the kinetic solubility amounted to 8.8 µg/mL (≈ 35.6 µM).

Regarding `CC(=O)c1ccc(CC2SC(N)=NC2=O)cc1` (stereo not drawn), the kinetic solubility was over 37.2 µg/mL.

In the case of `Cc1csc(NC(=O)Cc2ccc(F)cc2)n1`, the kinetic solubility is over 37.5 µg/mL.

Compound `O=S(=O)(Nc1ccc(Cl)cc1)c1cccc2nsnc12` registered a kinetic solubility of over 48.9 µg/mL.

`CC1CC1C(=O)OCC(=O)N(C)CC(=O)Nc1ccc(F)cc1` (stereo not drawn) yielded a kinetic solubility of over 48.4 µg/mL.

`O=C(CCc1nc(-c2ccc(Cl)cc2)no1)NCC1CCCO1` (stereo not drawn) displayed a kinetic solubility of over 50.4 µg/mL.

In turn, `COc1ccccc1OCc1nc(-c2cccc([N+](=O)[O-])c2)no1` showed a kinetic solubility of 0.9 µg/mL (≈ 2.75 µM).

As for `CCOc1ccccc1NC(=O)C(=O)CC(=O)c1ccc(OC)cc1`, the solubility (kinetic) was 6.1 µg/mL (≈ 17.9 µM).

Take `Cc1cccc(C)c1NC(=O)CN1CCCC1`: the solubility (kinetic) came to 31.3 µg/mL (≈ 135 µM).

Compound `COc1ccc(S(=O)Cc2ccc(C(=O)NC3CC3)o2)cc1` (stereo not drawn) gave a kinetic solubility of over 47.9 µg/mL.

For the origin of these results see PubChem BioAssay AID1996.
